Results on three molecules are retold here after patent US20230143604A1, “QW DOSING OF GIP RECEPTOR AGONIST PEPTIDE COMPOUNDS AND USES THEREOF” (TAKEDA PHARMACEUTICAL COMPANY LIMITED, priority 2020, published 2023).

Read-outs that look alike come from different tables or passages of the source.

One data set deals with T1, human GLP-1R (Homo sapiens, UniProt P43220).
T1 construct: HEK-293T cells overexpressing full-length human GLP-1R; FLAG (N); host or cells: HEK-293T
As to the kind of experiment: Human GLP1R agonist activity, intracellular cAMP accumulation. Format: cell-based. Conditions: HEK-293T cells overexpressing human GLP-1R, 1 hr, read-out: Human GLP1R cAMP EC50, HEK293T. An outline of the steps: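 Frozen assay-ready cells washed and resuspended at 4×10^5 cells/mL in Krebs Ringer buffer, then incubated with compound 1 hr at room temperature in the dark. cAMP read by HTRF (anti-cAMP antibody, d2-cAMP tracer). Normalised to 1 nm GLP-1 (100%) and DMSO (0%).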

The test system of the next data set is C57BL/6J mice. In words: Oral glucose tolerance test (OGTT). It counts as in vivo. Conditions: 3 nmol/kg s.c., 24 hours before glucose loading. In outline:
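Peptide or vehicle given s.c. at 0.1, 0.3, 3 or 10 nmol/kg (peptide-dependent), 24 h before oral 50% dextrose at 5 ml/kg unless stated otherwise. Blood glucose read at 0, 15, 30 and 60 min. % inhibition = (1−(AUC cpd−AUC naïve)/(AUC veh−AUC naïve))×100.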

A short description of data set [1]: Human plasma protein binding (PPB). Format: in vitro ADME. An outline of the steps: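 Peptides spiked at 1000 nmol/L into pooled human K2-EDTA plasma adjusted to pH 7.4, incubated 30 min at 37 °C, then ultracentrifuged at ~450,000 g, 4 °C for 3 h. Fu derived from LC-MS/MS (MRM) peak area ratios, supernatant versus plasma.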
For another data set, the system named is male ferrets. It counts as in vivo. How it is done:
1. Effect of subcutaneously administered GIP receptor agonist peptide in morphine-induced acute emetic model.
To evaluate the antiemetic effect, the GIP receptor agonist peptides other than natural human GIP are subcutaneously administered into male ferrets 24 hrs before morphine administration. Up to 60 minutes after morphine administration, the condition of the ferrets is monitored to record the frequencies and time points of abdominal contraction motions, vomiting behaviors, licking with the tongue, and fidgety behavior occurring. GIP receptor agonist peptide compounds of the present disclosure dosed at 0.3-10 nmol/kg attenuated the morphine (0.6 mg/kg, s.c.)-induced emesis in the ferrets.
GIP receptor agonist peptides are dissolved with a vehicle (0.09 w/v % tween 80/10% DMSO/saline), respectively, to prepare test solutions. […] of the test solutions and the vehicle are subcutaneously administered to ferrets (4 in each group), respectively. At the time of each of 4 or 24 hours after administration, 0.6 mg/kg of morphine is subcutaneously administered.

Another data set can be described thus: physchem. An outline of the steps: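 3 mg of peptide treated with 100 μL portions of 200 mM phosphate buffer pH 7.4, sonicating/vortexing up to 1 min, with further buffer added until fully dissolved. Solubility then quantified by HPLC.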
Data set [2] can be described thus: Dog plasma protein binding (PPB). Format: in vitro ADME. Conditions: pH 7.4; fraction unbound; dog serum; read-out: Dog PPB (FUplasma). In outline: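 Dog serum replaced human serum, with the protocol and analysis otherwise the same as for human plasma protein binding. Values are reported as fraction unbound (Fu,plasma) expressed as a percentage.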
Data set [3] is described as follows: Pharmacokinetics in dog after IV and SC dosing. Conditions: in vivo. An outline of the steps: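 Dogs were dosed IV or SC at 1 mL/kg with peptide at 3 nmol/mL in 10% DMSO/0.09% Polysorbate/PBS pH 7.4. K2-EDTA plasma was sampled to 336 h, and peptide was quantified by LCMS to derive half-life.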
In the next data set the test system is Dogs. Format: in vivo. Conditions: 10 nmol/kg s.c. As for the experimental part:
Dogs are transferred to an observation cage (700 mm W×700 mm D×700 mm H [W×D×H], without food) on 1 day before each apomorphine challenge. The dogs are weighed by using an electronic balance then test peptide compounds and vehicle will be administrated via the subcutaneous route. Apomorphine is challenged at 8 hr after the administration and emetic events will be monitored for 1 h by video recording. The second apomorphine challenge will be 72 hr after the administration and emetic events will be recorded by the same protocol. Emesis symptoms are continuously recorded using a video camera and stored on a blue ray disc. Observation of symptoms include retching (a rhythmic contraction of the abdomen) and vomiting (vomiting behavior, including the elimination of vomitus or similar behavior). Besides, the combination of retching and vomiting is defined as emesis, and the number of episodes, latency (time elapsed from morphine administration until the onset of the first emesis symptom), duration (time elapsed between the onset of the first and final episodes of emesis), and frequency (number of animals showing emesis/number of experimental animals) of each of these symptoms is calculated. The latency in cases where emesis symptoms are not noted is taken as the maximum value (1 h for apomorphine challenge) at the end of observation. When the duration of the emesis symptoms is less than 1 min, the duration is recorded, for convenience, as 1 min.

Another data set relates to female beagle dogs. In words: PYY-1119-induced vomiting in dogs. It counts as in vivo. Conditions: 3 nmol/kg s.c., 72 hours post-dose (lower line). How it is done:
The GIPR agonist peptide compounds of the present disclosure or vehicle (0.09% [w/v] Tween 80/10% DMSO/PBS) were administered subcutaneously (sc) at 3-10 nmol/kg to female beagle dogs (10 months old), followed by sc injections with Y2R agonist ((4-imidazolecarbonyl-Ser-D-Hyp-Iva-Pya(4)-Cha-Leu(Me)-Asn-Lys-Aib-Thr-Arg-Gln-Arg-Cha-NH2), […]), […]) at 1 hour or specified hours in the table postdose. Emetic episodes were counted for 2 hours after administration (by blinded analysis).

T1 sequence (P43220 24-463): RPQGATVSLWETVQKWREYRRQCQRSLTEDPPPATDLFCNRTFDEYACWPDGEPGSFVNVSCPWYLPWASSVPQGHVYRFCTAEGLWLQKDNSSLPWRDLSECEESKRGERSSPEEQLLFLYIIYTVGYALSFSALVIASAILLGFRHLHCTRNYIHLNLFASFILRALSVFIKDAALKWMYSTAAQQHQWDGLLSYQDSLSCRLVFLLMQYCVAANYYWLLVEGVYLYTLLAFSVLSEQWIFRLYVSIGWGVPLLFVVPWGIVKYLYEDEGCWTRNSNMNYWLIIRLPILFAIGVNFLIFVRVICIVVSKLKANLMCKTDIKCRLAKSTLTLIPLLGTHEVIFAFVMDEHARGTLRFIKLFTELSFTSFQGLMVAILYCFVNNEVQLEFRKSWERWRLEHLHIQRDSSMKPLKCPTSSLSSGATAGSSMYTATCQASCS

The term EC50 denotes the concentration at which the effect is half-maximal. For orientation: solubility means the concentration that dissolves in the medium under given conditions. A lower solubility goes with a poorly soluble substance. What is called MRT last is the average time that molecules of a dose stay in the body. Regarding `CC[C@H](C)[C@H](NC(=O)[C@H](CO)NC(=O)[C@H](Cc1ccc(O)cc1)NC(=O)[C@H](CC(=O)O)NC(=O)[C@H](CO)NC(=O)[C@@H](NC(=O)[C@H](Cc1ccccc1)NC(=O)[C@@H](NC(=O)CNC(=O)[C@H](CCC(=O)O)NC(=O)C(C)(C)NC(=O)[C@H](Cc1ccc(O)cc1)NC)[C@@H](C)O)[C@@H](C)CC)C(=O)N[C@@H](C)C(=O)N[C@@H](CCCCNC(=O)CNC(=O)CNC(=O)CNC(=O)CNC(=O)CNC(=O)CCCCCCCCCCCCCCCCC(=O)O)C(=O)N[C@@H](CC(=O)O)C(=O)N[C@@H](CCCNC(=N)N)C(=O)NC(C)(C)C(=O)N[C@@H](C)C(=O)N[C@@H](CCC(N)=O)C(=O)NC(C)(C)C(=O)N[C@@H](CC(=O)O)C(=O)N[C@@H](Cc1ccccc1)C(=O)N[C@H](C(=O)N[C@@H](CC(N)=O)C(=O)N[C@@H](Cc1c[nH]c2ccccc12)C(=O)N[C@@H](CC(C)C)C(=O)N[C@@H](CC(C)C)C(=O)N[C@@H](C)C(=O)N[C@@H](CCC(N)=O)C(=O)N[C@@H](CO)C(=O)N1CCC[C@H]1C(=O)NCC(=O)O)C(C)C` [Compound 84, Me-Y-Aib-E-G-T-F-I-S-D-Y-S-I-A-Km-D-R-Aib-A-Q-Aib-D-F-V-N-W-L-L-A-Q-S-P-G-OH], at human GLP-1R, the EC50 amounted to 58.9 nM. The “Oral Glucose Tolerance Test Percent decrease in blood glucose AUC (%) over 60 mins” value in the data set with C57BL/6J mice is listed as 72% (3 nmol/kg). Besides, the fraction unbound in data set [1] (both sexes, pH 7.4, fraction unbound, human plasma, 1000 nmol/L peptide, ultracentrifugation, read-out: Human PPB (FUplasma)) was 0.0009; in data set [2], 0.0003. Moreover, in [1] (judged for once per week (QW) dosing), the “free unbound peptide in human plasma (in words)” value is “optimum free unbound peptide”. In addition, the “% inhibition of emetic events at doses (nmol/kg) and timepoints shown in ferret morphine model” value in the data set with male ferrets (24 hrs, 1 nmol/kg s.c.) is 24 hrs: 65% (1 nmol/kg);. The “effect on morphine-induced emesis in ferrets (in words)” value in the data set with male ferrets (morphine 0.6 mg/kg s.c., peptides dosed at 0.3-10 nmol/kg s.c.) is on record as “effective in completely inhibiting the frequency of emesis”. Further, the solubility is not below 15 mg/mL in “physchem” (pH 7.4) and not below 60 mg/mL in “physchem” (pH 7.4, aqueous buffer). For the same molecule, the half-life in data set [3] (IV 3 nmol/kg, read-out: IV T½ (converted)) was 2.58 days. For the same molecule, the MRT last in data set [3] (SC 3 nmol/kg, read-out: SC MRT 0-last) amounted to 82 h.
Consider `CC[C@H](C)[C@H](NC(=O)[C@H](Cc1ccccc1)NC(=O)[C@@H](NC(=O)CNC(=O)[C@H](CCC(=O)O)NC(=O)C(C)(C)NC(=O)[C@H](Cc1ccc(O)cc1)NC)[C@@H](C)O)C(=O)N[C@@H](CO)C(=O)N[C@@H](CC(=O)O)C(=O)N[C@@H](Cc1ccc(O)cc1)C(=O)N[C@@H](CO)C(=O)N[C@H](C(=O)NC(C)(C)C(=O)N[C@@H](CCCCNC(=O)CNC(=O)CNC(=O)CNC(=O)CNC(=O)CNC(=O)CCCCCCCCCCCCCCCCC(=O)O)C(=O)N[C@@H](CC(=O)O)C(=O)N[C@@H](CCCNC(=N)N)C(=O)NC(C)(C)C(=O)N[C@@H](C)C(=O)N[C@@H](CCC(N)=O)C(=O)NC(C)(C)C(=O)N[C@@H](CC(=O)O)C(=O)N[C@@H](Cc1ccccc1)C(=O)N[C@H](C(=O)N[C@@H](CCC(=O)O)C(=O)N[C@@H](Cc1c[nH]c2ccccc12)C(=O)N[C@@H](CC(C)C)C(=O)N[C@@H](CC(C)C)C(=O)N[C@@H](C)C(=O)N[C@@H](CCC(N)=O)C(=O)N[C@@H](CCCNC(=N)N)C(=O)NCC(=O)O)C(C)C)[C@@H](C)CC` [Compound 108], for which the EC50 at human GLP-1R is 41.7 nM. The “Oral Glucose Tolerance Test Percent decrease in blood glucose AUC (%) over 60 mins” value in the data set with C57BL/6J mice is 65% (3 nmol/kg). The solubility is not below 15 mg/mL in the data set “physchem” (pH 7.4) and not below 60 mg/mL in “physchem” (pH 7.4, aqueous buffer). Besides, the “% inhibition of emetic events at doses (nmol/kg) shown in dog apomorphine model” value in the data set on Dogs (after 8 hrs (upper)) is 50% (10 nmol/kg); in the data set with Dogs (after 72 hours (lower)) it was 54% (10 nmol/kg). For the same molecule, in the data set on female beagle dogs, the “Inhibition (%) of PYY-1119-induced emetic event” value is recorded as 96% (3 nmol/kg).
Turning to `CC[C@H](C)[C@H](NC(=O)[C@H](CCCNC(=N)N)NC(=O)[C@H](CC(=O)O)NC(=O)[C@H](CCCCNC(=O)CNC(=O)CNC(=O)CNC(=O)CNC(=O)CNC(=O)CCCCCCCCCCCCCCCCC(=O)O)NC(=O)[C@H](C)NC(=O)[C@@H](NC(=O)[C@H](CO)NC(=O)[C@H](Cc1ccc(O)cc1)NC(=O)[C@H](CC(=O)O)NC(=O)[C@H](CO)NC(=O)[C@@H](NC(=O)[C@H](Cc1ccccc1)NC(=O)[C@@H](NC(=O)CNC(=O)[C@H](CCC(=O)O)NC(=O)C(C)(C)NC(=O)[C@H](Cc1ccc(O)cc1)NC)[C@@H](C)O)[C@@H](C)CC)[C@@H](C)CC)C(=O)N[C@@H](C)C(=O)N[C@@H](CCC(N)=O)C(=O)N[C@@H](CCCNC(=N)N)C(=O)N[C@@H](CC(N)=O)C(=O)N[C@@H](Cc1ccccc1)C(=O)N[C@H](C(=O)N[C@@H](CCC(=O)O)C(=O)N[C@@H](Cc1c[nH]c2ccccc12)C(=O)N[C@@H](CC(C)C)C(=O)N[C@@H](CC(C)C)C(=O)N[C@@H](C)C(=O)N[C@@H](CCC(N)=O)C(=O)N[C@@H](CO)C(=O)N1CCC[C@H]1C(=O)N[C@@H](CO)C(=O)N[C@@H](CO)C(=O)NCC(=O)N[C@@H](C)C(=O)N1CCC[C@H]1C(=O)N1CCC[C@H]1C(=O)N1CCC[C@H]1C(=O)N[C@@H](CO)C(=O)O)C(C)C` [Compound 179], the “Oral Glucose Tolerance Test Percent decrease in blood glucose AUC (%) over 60 mins” value in the data set on C57BL/6J mice is on record as 58% (3 nmol/kg). The solubility in “physchem” (pH 7.4, aqueous buffer, pH 7.4 Phosphate Buffer - Solubility, 200 mM Phosphate buffer pH 7.4) is not below 30 mg/mL; in “physchem” (pH 7.4, solubility in phosphate buffer at pH 7.4, 200 mM phosphate buffer pH 7.4) it was not below 15 mg/mL. Besides, the “Inhibition (%) of PYY-1119-induced emetic event” value with female beagle dogs is on record as 45% (3 nmol/kg).
